Experimental data: patent US20030104079A1, “Skin tissue regeneration promoters comprising ginsenoside Rb1” (Japan Science and Technology Corporation, Japan, priority 2000, published 2003)

How the values were obtained:
[1] = intraperitoneally administered; Kaku et al. 1975; cited from earlier work
open wound of skin = assay: Open wound healing by intravenous preinfusion before punch biopsy; type: in vivo, Wistar rats
Procedure: Then, we (the present inventors) have examined whether intravenous administration of ginsenoside Rb1 before preparation of open wound of skin can promote regeneration and/or reconstruction of the skin tissue. For that purpose, ginsenoside Rb1 (12 μg) dissolved in physiological saline was intravenously administered once into male Wistar rats (body weight about 300 g), under inhalation anesthesia, subsequently, continuous intravenous infusion of ginsenoside Rb1 (12 μg/day) was conducted for 4 days by using an Alza osmotic minipump. Thereafter, the punch biopsy with diameter 6 mm was performed in the dorsal skin region of animals under inhalation anesthesia to make open wound, and simultaneously, ginsenoside Rb1 was continuously infused intravenously for 3 days.
An equal amount of physiological saline was administered intravenously in the control animals, for which the same open wound was prepared to leave the animals as they were.
On day 2 after finishing continuous intravenous administration of ginsenoside Rb1 or physiological saline (i.e. on day 5 after preparation of the open wound), the animals were anesthetized with pentobarbital and fixed transcardially with perfusion of 0.1 M phosphate buffer containing 4% paraformaldehyde. Thereafter, the skin tissue including the open wound was dissected out, post-fixed and embedded in paraffin according to the conventional method. Paraffin sections 5 μm thick were cut and stained with hematoxylin-eosin (HE). FIG. 3 is a photograph in place of drawing. […] “i” indicates incrustation or eschar, “ep” indicates stratified squamous epithelium of epidermis, and “by” indicates blood vessel.
Intravenous administration of physiological saline solution containing ginsenoside Rb1 (12 μg) was conducted once in male Wistar rats weighing about 300 g under inhalation anesthesia, subsequently, ginsenoside Rb1 was continuously infused intravenously for 4 days through an Alza osmotic minipump at a dose of 12 μg/day. […]

incised wound of skin = assay: Incised wound healing by intravenous infusion; type: in vivo, Wistar rats; details: vs physiological saline
Procedure: In order to investigate the effects of low dosages, low doses or low concentrations of ginsenoside Rb1 on regeneration and/or reconstruction of skin tissue, the effect(s) of continuous intravenous infusion of ginsenoside Rb1 on incised wound of skin which enabled us to observe easily regeneration phenomena of tissues or cells was examined. Male, Wistar rats (body weight about 300 g) were used. The animals were bred in a room with a 12:12 hour light-dark cycle, and water and feed were supplied ad libitum. Incised wound with length about 3 cm was made in the dorsal region of animals under inhalation anesthesia, and sutured with nylon thread. One hour later, ginsenoside Rb1 (60 μg) dissolved in physiological saline was once intravenously injected. Thereafter continuous intravenous infusion of ginsenoside Rb1 (60 μg/day) was performed for 7 days by using an Alza osmotic minipump.
An equal amount of physiological saline was administered intravenously in the control animals, for which the same […] was made and sutured with nylon thread.
On day 2 after finishing continuous intravenous administration of ginsenoside Rb1 or physiological saline, the animals were anesthetized with pentobarbital and perfused transcardially with 0.1 M phosphate buffer containing 4% paraformaldehyde. […]

CC(C)=CCC[C@](C)(O[C@@H]1O[C@H](CO[C@@H]2O[C@H](CO)[C@@H](O)[C@H](O)[C@H]2O)[C@@H](O)[C@H](O)[C@H]1O)[C@H]1CC[C@]2(C)[C@@H]1[C@H](O)C[C@@H]1[C@@]3(C)CC[C@H](O[C@@H]4O[C@H](CO)[C@@H](O)[C@H](O)[C@H]4O[C@@H]4O[C@H](CO)[C@@H](O)[C@H](O)[C@H]4O)C(C)(C)[C@@H]3CC[C@]12C [ginsenoside Rb1]
LD50 [1]: 1110 mg/kg
regeneration, generation and reconstruction of ruptured and excised blood vessels (FIG. 3) (open wound of skin; 12 μg/day iv 4 days before and 3 days after open wound, day 5 after open wound): facilitated
regeneration and reconstruction of skin tissue (FIG. 3) (open wound of skin; 12 μg/day iv 4 days before and 3 days after open wound, day 5 after open wound, vs physiological saline): regeneration and reconstruction of skin tissue were obviously promoted
effect on healthy tissues, ginsenoside Rb1-administered vs physiological saline-administered case (open wound of skin; continuous intravenous administration of low dosages): no clear difference was observed
scar or granulation formation in incised wound (HE histology, FIG. 1) (incised wound of skin; 60 μg/day continuous iv for 7 days after one iv infusion, two days after end of infusion): scar or granulation formation was obviously little
regeneration and reconstruction of epidermis, dermis and subcutaneous tissue after incised wound (incised wound of skin; 60 μg/day continuous iv for 7 days): regenerated, reconstructed or recovered to the nearly normal condition
